Assay results: patent US20220233523A1, “ANTIBIOTIC POTENTIATION FOR NONTUBERCULOUS MYCOBACTERIAL DISEASE” (priority 2019, published 2022)

What was measured:
[1] = system: sessile MAH104 cells; experiment: Growth and biofilm formation of pre-attached (sessile) cells in nutrient-limited media; type: cell-based, Mycobacterium avium subsp hominissuis 104 (MAH104); details: for O.D.570 nm of sessile MAH104 (crystal violet, biofilm formation): 0.05% fatty acids in non-supplemented 7H9, 7 days, blank 0.091±0.007; for growth of sessile forms: 0.2% glycerol or 0.05% fatty acids in non-supplemented 7H9, 7 days at 37° C., O.D.595 nm
Method: Assays with biofilms incubated with propionic acid, butyric acid, and glycerol were performed to test whether these metabolites affect the formation of biofilms. All the experiments were made in non-supplemented 7H9. The effect of these metabolites was evaluated during biofilm formation, in pre-established biofilms and in M. avium cells pre-attached to polystyrene. To evaluate the effect of targeted metabolites during biofilm formation, mycobacteria suspensions were prepared and inoculated in 96 wells polystyrene plates, as already described, and biofilms were formed in the presence or not of the short-chain fatty acids at different concentrations (1%, 0.5%, 0.1%, 0.05% and 0.01%). For glycerol, only 0.2% was used. The biofilms were formed in 7H9 media at 37° C. for 7 days. For pre-established biofilms, MAH104 was again inoculated in 96 wells plates and biofilms were formed as described herein. […] It was also evaluated whether these metabolites could promote the growth of MAH104 cells present in biofilms through the measurement of […] every 24 hours. Finally, mycobacteria suspension with low density made in 7H9 broth (containing 1×10^6 bacteria/ml) were seeded in 96 wells polystyrene plates and incubated for 7 days at 37° C. […] The growth of pre-attached bacterial cells was followed every 24 hours through O.D.595 nm. The biofilm formation was evaluated by crystal violet.
Low mycobacterial cells density (10^6/ml) resuspended in non-supplemented 7H9 media were inoculated in 96-well plates and incubated for 7 days at 37° C. to allow the bacteria to attach into polystyrene. The supernatant was discarded to remove planktonic cells and pre-attached bacterium was incubated for 7 days in nutrient-limited media (non-supplemented 7H9). […] The growth of sessile mycobacteria was followed by O.D.595 nm measurement and biofilm formation was determined through crystal violet (O.D.570 nm), since the multiplication of bacteria cells is linked with the formation of biofilms. No growth was observed when sessile MAH104 cells were cultivated in non-supplemented 7H9 broth. […] It is also important to highlight that the O.D.570 nm value for sessile MAH104 forms incubated with non-supplemented 7H9 (O.D.570 nm=0.11±0.039) had no significant difference in comparison with the blank (O.D.570 nm=0.091±0.007) (P=0.37), showing no biofilm formation. […] FIG. 3A-D.

[2] = system: MAH 3388 biofilm; experiment: Amikacin with short-chain fatty acids on biofilm of lung isolate MAH 3388; type: cell-based; details: for CFU/mL, MAH 3388: amikacin concentration: 4 mg/ml, untreated 9.4 +/− 0.2 × 10^7; for activity to potentiate Amikacin activity: biofilms of MAH 3388
Method: As a negative control, biofilms were incubated only with non-supplemented 7H9 without any antibiotics. […] Subsequently, 100 μl of 0.02% of Triton X-100 (final concentration 0.01%) was added to the established biofilms to mix, dilute and perform CFU analysis with the entire population of biofilms (attached and unattached).
Biofilms were established from an MAH strain isolated from the lungs of a patient (MAH 3388).

[3] = system: MAH 3393 biofilm; experiment: Amikacin with short-chain fatty acids on biofilm of lung isolate MAH 3393; type: cell-based; details: amikacin concentration: 4 mg/ml; untreated 1.0 +/− 0.8 × 10^8
[4] = system: MAH104 biofilms; type: cell-based, Mycobacterium avium subsp hominissuis 104 (MAH104); details: O.D.590 nm, biofilm vs planktonic
Method: Metabolic phenotype study was performed with planktonic and biofilm cultures using the 96-well plates PM1 and PM2A (BIOLOG™, Hayward, Calif.). The assays with planktonic cells and biofilms were made at the same time. Each plate contains carbon substrates and one negative control well, in which the bacteria is tested without any substrate. The tests with planktonic and biofilm cultures were performed at the same time and the culture inoculum have the same number of passages. […] The experiments were made as an end-point assay.
The cultures of biofilms were established for 7 days in regular polystyrene 96 well plates, not in PM Biolog plates, as described above with a minor difference. […] (total of 14 days of biofilm incubated at 37° C.). To obtain spectrophotometric measurements from biofilm cultures (O.D.590 nm), the plate was centrifuged for 20 minutes at 3500 rpm at 20° C., which reduce bacteria interference with the readings, and biofilm supernatant was transferred to a new 96 well plates for O.D.590 nm measurement.
Experiments were performed three times as an end-point assay. If planktonic and/or biofilm cultures were able to metabolize a specific metabolite substrate, electrons from NADH reduce the Redox dye in an irreversible reaction that generates a purple color in the PM plate wells. The signal (+) and (−) indicates, respectively, whether a purple color was produced or not. Abiotic reductions of the Redox dye were assessed through adding bacteria-free GN/GP-IF-0a fluid in the wells. Negative control corresponds to the wells without any metabolic substrate.

CCCC(=O)O [Butyric acid]
O.D.570 nm of sessile MAH104 (crystal violet, biofilm formation) [1]: 0.32±0.02
growth of sessile forms [1]: supported the growth of sessile forms
CFU/mL, MAH 3388 [2]: 9.7 +/− 0.6 × 10^7 CFU/mL
activity to potentiate Amikacin activity [2]: confirmed
CFU/mL, MAH 3393 [3]: 6.2 +/− 0.7 × 10^7 CFU/mL

CCC(=O)O [Propionic acid]
lower capacity of biofilms to use the substrate compared with planktonic cultures [4]: 5.49 fold
O.D.570 nm of sessile MAH104 (crystal violet, biofilm formation) [1]: 0.25±0.01
growth of sessile forms [1]: supported the growth of sessile forms
CFU/mL, MAH 3388 [2]: 9.6 +/− 0.4 × 10^7 CFU/mL
activity to potentiate Amikacin activity [2]: confirmed
CFU/mL, MAH 3393 [3]: 1.7 +/− 0.4 × 10^7 CFU/mL

OCC(O)CO [Glycerol]
lower capacity of biofilms to use the substrate compared with planktonic cultures [4]: 11.14 fold
growth of sessile forms [1]: supported the growth of sessile forms
